Like-named read-outs stand apart in the source and are kept apart here.
Legend:
E3 organism [1] = test: Zone of Inhibition testing of paper discs saturated with aqueous antimicrobial solutions; format: cell-based, gram-positive, coagulase-negative cocci
Procedure: In this experiment, the effectiveness of various topical antimicrobial agents against the E3 organism was determined using Zone of Inhibition testing of paper discs saturated with aqueous antimicrobial solutions.

E3 organism [2] = test: Zone of Inhibition testing of antimicrobial-loaded transdermal matrix disks; format: cell-based, gram-positive, coagulase-negative cocci
Procedure: These patches were cut into 1 cm^2 disks and subjected to Zone of Inhibition testing against the E3 organism with 24-hour incubation.
In the next experiment, placebo matrix patches (18 cm^2 area) were manufactured for a clinical wear study.

[3] = test system: bacterial count on the skin; conditions: cited from earlier work
[4] = in vivo; cited from earlier work
[5] = In vitro skin flux from PSA matrix patches and hydroalcoholic gels (modified Franz diffusion cells); conditions: 24-hour skin flux of the drug from Morstick 214 PSA patch with 1% BzthCl, relative to 0% enhancer
Procedure: In vitro skin flux studies were conducted on epidermal membranes (stratum corneum and epidermis) obtained from whole human cadaver skin (epidermal membrane and dermis) by the heat-separation method of Kligman & Christopher, 88 Arch. […] This method consists of immersion of the whole skin for 60 seconds in water at 60° C., followed by mechanical separation of the epidermal and dermal layers. After separation, the epidermal membrane is stored in aluminum foil at −5° C. until use.
Skin flux experiments were conducted in two-compartment glass diffusion cells with a modified Franz design. The receiver compartment was filled with water or an aqueous buffer appropriate to maintain sink conditions for the drug. All receiver media included 0.02% (w/w) sodium azide to inhibit bacterial growth. […]
At predetermined sampling intervals, the entire volume of the receiver compartment solution was collected for drug quantification, and the receiver compartment was filled with fresh receiver solution, taking care to eliminate any air bubbles at the skin/solution interface.
Receiver solution samples were analyzed for drug content by HPLC with external standards of known drug concentration used for calibration. The cumulative amount of drug permeated per unit area at any time t (Qt, μg/cm^2) was determined according to the following equation: [formula] […]

[6] = aqueous solution 2.0% w/w on 0.33 cm^2 paper disks, read-out: Zone of Inhibition

| Molecule | zone of inhibition at 2 % strength (E3 organism [1]; [6]) [mm] | time required for the bacterial count on the skin to be decreased by 50% [3] [min] | time required to effect a 90% reduction of bacterial count [3] [min] | further results |
| --- | --- | --- | --- | --- |
| OCc1ccccc1 [Benzyl Alcohol] | 10 |  |  |  |
| benzalkonium chloride |  | 7 | 25 | Zone of Inhibition (E3 organism [1]; aqueous solution 0.4% w/w on 0.33 cm^2 paper disks): 13 mm; Zone of Inhibition (E3 organism [2]; 0.4% w/w in DuroTak 87-2888 adhesive matrix disks, 24-hour incubation): 15 mm; skin irritation [4]: severe irritation |
| Cl.O=C1CC2(CCCC2)CC(=O)N1CCCCN1CCN(c2ncccn2)CC1 [Buspirone HCI] |  |  |  | % Increase in Q24 [5]: 38 (21%) |
| O=C(O)c1ccccc1 [Benzoic Acid] |  |  |  | zone of inhibition at 2 % strength (E3 organism [1]): 10 mm; zone of inhibition at 0.4 % strength (E3 organism [2]; 24 h): < 0 mm |
| CCO [70% ethanol, ethanol] |  | 0.6 | 2 |  |
| COC(=O)c1ccc(O)cc1 [Methyl Paraben] | 0 |  |  |  |
